From US12595254B2, “Crystal form of Resmetirom, preparation method therefor, and use thereof” (CRYSTAL PHARMACEUTICAL (SUZHOU) CO., LTD., priority 2020, dated 2026)
≈ marks a conversion by molar mass, not a printed value. Entries after “also recorded” stand apart in the source; their conditions may differ. Read-outs that look alike come from different tables or passages of the source.

Assays:
[1] = Pressure stability (tableting, XRPD); format: physicochemical
Protocol: ENERPAC manual tablet press was used for compression. 20 mg of Form CSVI were compressed into tablets under different pressures with the dies of a 16 mm round tooling. Crystalline form before and after tableting were checked by XRPD.

[2] = Stability of crystalline form in drug product process; format: physicochemical; settings: XRPD, tablet per Tables 11 and 12
Description: The formulation and preparation process of Form CSVI are shown in Table 11 and Table 12, respectively.

[3] = Flowability (compressibility index); format: physicochemical
Protocol: Compressibility index is usually utilized to evaluate the flowability of powder or granules during the drug product process. Compressibility index test method is as follows: a certain amount of powder was added into a measuring cylinder and bulk volume was recorded. Then the powder was tapped to make it in the tightest state and the tapped volume was recorded.
The bulk density (ρ0), tapped density (ρf) were calculated and compressibility index was calculated according to c=(ρf−π0)/ρf.

[4] = Hygroscopicity by dynamic vapor sorption (DVS); format: physicochemical; settings: for Weight gain: DVS
Protocol: Dynamic Vapor Sorption (DVS) was measured via an SMS (Surface Measurement Systems Ltd.) intrinsic DVS instrument. The instrument control software is DVS-Intrinsic control software. Typical Parameters for DVS test are as follows: • Temperature: 25° C. • Gas and flow rate: N2, 200 mL/min • RH range: 0% RH to 95% RH
Dynamic vapor sorption (DVS) analyzer was applied to evaluate the hygroscopicity of Form CSVI and Form I in the prior art with an appropriate amount. The weight gains at each relative humidity were recorded in a cycle of 0-95%-0 RH.

[5] = Compressibility (tensile strength of compressed tablet); format: physicochemical; settings: for Diameter / Hardness / Thickness / Tensile strength: 80 mg compressed at 10 KN; for Diameter / Hardness / Thickness: after 24 h at room temperature; for Tensile strength: T=2H/πDL
Protocol: ENERPAC manual tablet press was used for compression. 80 mg of Form CSVI and Form I in the prior art were weighed and added into the dies of a 16 mm round tooling, compressed at 10 KN manually, then stored at room temperature for 24 h until complete elastic recovery, diameter (D) and thickness (L) were tested with caliper. Hardness (H) was tested with an intelligent tablet hardness tester. Tensile strength of the powder was calculated with the following formula: T=2H/πDL. Under a certain force, the greater the tensile strength, the better the compressibility.

[6] = Adhesiveness (amount sticking to the punch); format: physicochemical; settings: 30 mg, Φ8 mm tooling, 10 KN held for 30 s
Protocol: 30 mg of Form CSVI and Form I in the prior art were weighed and then added into the dies of Φ8 mm round tooling, compressed at 10 KN and held for 30 s. The punch was weighed and amount of material sticking to the punch was calculated. The maximum amount and average amount of material sticking to the punch during the compression were recorded.

[7] = Physicochemical stability of drug substance on storage (XRPD, HPLC); settings: for Chemical purity during storage / Time for which crystalline state doesn't change / kept stable: open and sealed package
Protocol: An appropriate amount of Form CSVI were stored under different conditions of 25° C./60% RH and 40° C./75% RH. Crystalline form and chemical purity were checked by XRPD and HPLC, respectively.

Grinding stability = format: physicochemical; settings: ground manually in a mortar
Protocol: Solid sample of Form CSVI was ground manually for 5 minutes in a mortar.

[8] = Solubility in simulated gastric fluid (SGF), HPLC; format: physicochemical
Protocol: When solubility test is used to predict the in vivo performance of a drug, it is critical to simulate in vivo conditions as closely as possible. Simulated gastric fluid (SGF) can be used to simulate the condition in vivo and predict the effects of eating, thus solubility in this medium is closer to that in vivo. 15 mg of Form CSVI was suspended into 2.0 mL of SGF. After equilibrated for 1 h at 37° C., concentrations of the saturated solutions were measured by HPLC.

Q: Which “Stability under different pressures (in words)” value ([1]; 3, 7, 14 kN) does the source give for `CC(C)c1cc(Oc2c(Cl)cc(-n3nc(C#N)c(=O)[nH]c3=O)cc2Cl)n[nH]c1=O` [Form CSVI, 2-(3,5-dichloro-4-((5-isopropyl-6-oxo-1,6-dihydropyridazin-3-yl)oxy)phenyl)-3,5-dioxo-2,3,4,5-tetrahydro-1,2,4-triazine-6-carbonitrile] here?
A: good stability under different pressures

Q: What about the “Solid form after tableting” value ([1]; Pressure 3 kN) of the same compound?
A: Form CSVI

Q: And the “Solid form after tableting” value ([1]; Pressure 7 kN)?
A: Form CSVI

Q: And the “Solid form after tableting” value ([1]; Pressure 14 kN)?
A: Form CSVI

Q: What about the “Crystalline form before and after the formulation process” value [2] of the same compound?
A: remained stable

Q: And the “Flowability compared with Form I in the prior art” value [3]?
A: superior to that of Form I in the prior art

Q: And the Weight gain ([4]; 25° C./80% RH)?
A: 0.07%

Q: And the “Crystal form after DVS test” value ([4]; XRPD before and after DVS)?
A: does not change

Q: What about the “Hygroscopicity (in words)” value ([4]; from weight gain at 25° C./80% RH) of the same compound?
A: non or almost non hygroscopic

Q: And the “Compressibility (in words)” value [5]?
A: better compressibility

Q: What about the Diameter [5] of the same compound?
A: 6.06 mm

Q: And the Hardness [5]?
A: 13.4 N

Q: What about the Thickness [5] of the same compound?
A: 2.05 mm

Q: What about the Tensile strength [5] of the same compound?
A: 0.69 MPa

Q: What about the “Average amount sticking to the punch” value [6] of the same compound?
A: 0.05 mg

Q: And the “Maximum amount sticking to the punch” value [6]?
A: 0.10 mg

Q: And the Purity ([7]; 25° C./60% RH Open, 6 months)?
A: 99.73%

Q: And the “Solid Form” value ([7]; 25° C./60% RH Open, 6 months)?
A: Form CSVI

Q: What about the Purity ([7]; 25° C./60% RH Sealed, 6 months) of the same compound?
A: 99.74%

Q: And the “Solid Form” value ([7]; 25° C./60% RH Sealed, 6 months)?
A: Form CSVI

Q: And the “Chemical purity during storage” value ([7]; 25° C./60% RH)?
A: above 99.7%

Q: What about the “Time for which crystalline state doesn't change / kept stable” value ([7]; 25° C./60% RH) of the same compound?
A: at least 6 months

Q: And the Purity ([7]; 40° C./75% RH Open, 6 months)?
A: 99.73%

Q: And the “Solid Form” value ([7]; 40° C./75% RH Open, 6 months)?
A: Form CSVI

Q: And the Purity ([7]; 40° C./75% RH Sealed, 6 months)?
A: 99.73%

Q: What about the “Solid Form” value ([7]; 40° C./75% RH Sealed, 6 months) of the same compound?
A: Form CSVI

Q: What about the “Chemical purity during storage” value ([7]; 40° C./75% RH) of the same compound?
A: above 99.7%

Q: And the “Time for which crystalline state doesn't change / kept stable” value ([7]; 40° C./75% RH)?
A: at least 6 months

Q: And the Purity ([7]; Initial)?
A: 99.73%

Q: And the “Solid Form” value ([7]; Initial)?
A: Form CSVI

Q: And the “Grinding stability (in words)” value (Grinding stability)?
A: remained stable; also recorded: doesn't change after grinding

Q: What about the “Solubility of Form CSVI relative to Form I in the prior art” value ([8]; SGF, 1 h) of the same compound?
A: about 2 times

Q: What about the solubility at 1 h ([8]; simulated gastric fluid (SGF), simulated gastric fluid, thermodynamic from solid, SGF, equilibrated for 1 h at 37° C.) of the same compound?
A: 2.1 µg/mL (≈ 4.83 µM)

Q: For `CC(C)c1cc(Oc2c(Cl)cc(-n3nc(C#N)c(=O)[nH]c3=O)cc2Cl)n[nH]c1=O` [crystalline form F, reference compound], which “Hygroscopicity (in words)” value ([4]; according to WO2020010068A1 and the inventors' experimental study, conditions not given) is on record?
A: high hygroscopicity

Q: Which Flowability ([3]; class by compressibility index, ICH Q4B Annex 13) does the source give for `CC(C)c1cc(Oc2c(Cl)cc(-n3nc(C#N)c(=O)[nH]c3=O)cc2Cl)n[nH]c1=O` [Form I in the prior art, 2-(3,5-dichloro-4-((5-isopropyl-6-oxo-1,6-dihydropyridazin-3-yl)oxy)phenyl)-3,5-dioxo-2,3,4,5-tetrahydro-1,2,4-triazine-6-carbonitrile, reference compound] here?
A: very poor

Q: What about the “Weight gain of Form I relative to Form CSVI” value ([4]; 25° C./80% RH) of the same compound?
A: about 2 times

Q: And the Weight gain ([4]; 25° C./80% RH)?
A: 0.13%

Q: What about the Diameter [5] of the same compound?
A: 6.06 mm

Q: What about the Hardness [5] of the same compound?
A: 7.4 N

Q: What about the Thickness [5] of the same compound?
A: 2.12 mm

Q: What about the Tensile strength [5] of the same compound?
A: 0.37 MPa

Q: And the “Compressibility (in words)” value ([5]; listed as crystalline form I)?
A: poor compressibility

Q: And the “Average amount sticking to the punch” value [6]?
A: 0.25 mg

Q: And the “Maximum amount sticking to the punch” value [6]?
A: 0.30 mg

Q: And the “Grinding stability (in words)” value (Grinding stability; listed as crystalline form I)?
A: most of the crystalline form I transform to amorphous after grinding

Q: What about the “Solubility (in words)” value ([8]; inventors' evaluation of repeated Form I) of the same compound?
A: low solubility
